Measurements: patent US6362369B1, “Phthalic acid diamide derivatives fluorine-containing aniline compounds as starting material, agricultural and horticultural insecticides, and a method for application of the insecticides” (Nihon Nohyaku Co., Ltd., priority 1997, dated 2002)

Tests used:
[1] = system: diamondback moth (Plutella xylostella); experiment: Insecticidal effect on diamondback moth (Test Example 1); assay type: in vivo; details: diamondback moth; for Insecticidal effect, Test Example 1: mortality judged by criterion of Test Example 1; for Insecticidal effect (Test Example 1), judged from mortality: judged by the criterion of Test Example 1
How it was run: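 Triplicate groups of 10 insects: eggs laid on Chinese cabbage seedling by adults, seedling immersed then air-dried, kept at 25° C. Day-6 hatch counts gave mortality, rated by criterion.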

[2] = system: common cutworm (Spodoptera Litura); experiment: Insecticidal effect on common cutworm (Test Example 2); assay type: in vivo; details: 500 ppm, 25° C.; for Insecticidal effect, Test Example 2: common cutworm second-instar larvae, cabbage leaf immersed, eight days after inoculation; for Insecticidal effect (Test Example 2), judged from mortality: cabbage leaf dip, second-instar larvae of common cutworm, 8 days after inoculation
Procedure: Insecticidal effect on common cutworm (Spodoptera Litura)
After air-drying, it was placed in a plastic Petri dish with a diameter of 9 cm and inoculated with second-instar larvae of common cutworm, after which the dish was closed and then allowed to stand in a room thermostated at 25° C. Eight days after the inoculation, the dead and alive were counted. The mortality was calculated according to the following equation and the insecticidal effect was judged according to the criterion shown in Test Example 1. The test was carried out with triplicate groups of 10 insects. [formula]

CC(C)(C)NC(=O)c1c(I)cccc1C(=O)Nc1ccc(OC(F)(F)F)cc1F [compound 1189]
Insecticidal effect, Test Example 1 [1]: A (100) | Insecticidal effect, Test Example 2 [2]: A (100)

Cc1cc(OC(F)(F)F)ccc1NC(=O)c1cccc(OC(F)(F)F)c1C(=O)NC(C)C [compound 1233]
Insecticidal effect, Test Example 1 [1]: A (100) | Insecticidal effect, Test Example 2 [2]: A (100)

Cc1cc(OC(F)(F)F)ccc1NC(=O)c1cccc(OC(F)(F)F)c1C(=O)NC(C)(C)C [compound 1234]
Insecticidal effect, Test Example 1 [1]: A (100) | Insecticidal effect, Test Example 2 [2]: A (100)

CCN(CC)C(=O)c1c(OC(F)(F)F)cccc1C(=O)Nc1ccc(OC(F)(F)F)cc1C [compound 1235]
Insecticidal effect, Test Example 1 [1]: A (100) | Insecticidal effect, Test Example 2 [2]: D (79-50)

Cc1cc(C(F)(C(F)(F)F)C(F)(F)F)ccc1NC(=O)c1cccc(OC(F)(F)F)c1C(=O)NC(C)C [compound 1236]
Insecticidal effect, Test Example 1 [1]: A (100) | Insecticidal effect, Test Example 2 [2]: A (100)

Cc1cc(C(F)(C(F)(F)F)C(F)(F)F)ccc1NC(=O)c1cccc(OC(F)(F)F)c1C(=O)NC(C)(C)C [compound 1237]
Insecticidal effect, Test Example 1 [1]: A (100) | Insecticidal effect, Test Example 2 [2]: A (100)

Cc1cc(C(F)(F)C(F)(F)F)ccc1NC(=O)c1cccc(C#N)c1C(=O)NC(C)C [compound 1245]
Insecticidal effect, Test Example 1 [1]: A (100) | Insecticidal effect, Test Example 2 [2]: A (100)

Cc1cc(C(F)(F)C(F)(F)F)ccc1NC(=O)c1ccc(F)c(Cl)c1C(=O)NC(C)(C)C [compound 1257]
Insecticidal effect, Test Example 1 [1]: A (100) | Insecticidal effect, Test Example 2 [2]: A (100)

CCN(CC)C(=O)c1c(C(=O)Nc2ccc(C(F)(F)C(F)(F)F)cc2C)ccc(F)c1Cl [compound 1258]
Insecticidal effect, Test Example 1 [1]: A (100) | Insecticidal effect, Test Example 2 [2]: A (100)

CCN(CC)C(=O)c1c(C(=O)Nc2ccc(OC(F)(F)F)cc2C)ccc(F)c1Cl [compound 1261]
Insecticidal effect, Test Example 1 [1]: A (100) | Insecticidal effect, Test Example 2 [2]: A (100)

Cc1cc(OC(F)F)ccc1NC(=O)c1cccc(Cl)c1C(=O)N[C@@H](C)c1ccccc1 [compound 1459]
Insecticidal effect (Test Example 1), judged from mortality [1]: A (100) | Insecticidal effect (Test Example 2), judged from mortality [2]: A (100)

O=C(Nc1ccc(C(F)(F)C(F)(F)F)cc1F)c1cccc(Cl)c1C(=O)NCc1ccccc1 [compound 1486]
Insecticidal effect (Test Example 1), judged from mortality [1]: A (100) | Insecticidal effect (Test Example 2), judged from mortality [2]: A (100)

O=C(Nc1ccc(C(F)(F)C(F)(F)F)cc1Cl)c1cccc(Cl)c1C(=O)NCc1ccccc1 [compound 1487]
Insecticidal effect (Test Example 1), judged from mortality [1]: A (100) | Insecticidal effect (Test Example 2), judged from mortality [2]: A (100)

Cc1cc(C(F)(F)C(F)(F)F)ccc1N(C)C(=O)c1cccc(Cl)c1C(=O)NC(C)c1ccccc1 (centres unmarked) [compound 1554]
Insecticidal effect (Test Example 1), judged from mortality [1]: A (100) | Insecticidal effect (Test Example 2), judged from mortality [2]: A (100)

CC(C)NC(=O)c1c(Cl)cccc1C(=O)Nc1cc2c(cc1F)OC(F)(F)O2 [compound 1594]
Insecticidal effect (Test Example 1), judged from mortality [1]: A (100) | Insecticidal effect (Test Example 2), judged from mortality [2]: A (100)

CC(C)NC(=O)c1c(I)cccc1C(=O)Nc1cc2c(cc1F)OC(F)(F)O2 [compound 1595]
Insecticidal effect (Test Example 1), judged from mortality [1]: A (100) | Insecticidal effect (Test Example 2), judged from mortality [2]: A (100)

CC(C)(C)NC(=O)c1c(I)cccc1C(=O)Nc1cc2c(cc1F)OC(F)(F)O2 [compound 1596]
Insecticidal effect (Test Example 1), judged from mortality [1]: A (100) | Insecticidal effect (Test Example 2), judged from mortality [2]: A (100)

Cc1cc(OC(F)(F)F)ccc1NC(=O)c1cccc(I)c1C(=O)NC(C)(C)CBr [compound 1605]
Insecticidal effect (Test Example 1), judged from mortality [1]: A (100) | Insecticidal effect (Test Example 2), judged from mortality [2]: C (89-80)

Cc1cc(C(F)(F)C(F)(F)F)ccc1NC(=O)c1cccc(I)c1C(=O)N[C@@H](C)CBr [compound 1606]
Insecticidal effect (Test Example 1), judged from mortality [1]: A (100) | Insecticidal effect (Test Example 2), judged from mortality [2]: A (100)

Cc1cc(C(F)(F)C(F)(F)F)ccc1NC(=O)c1cccc(I)c1C(=O)N[C@H](C)CBr [compound 1607]
Insecticidal effect (Test Example 1), judged from mortality [1]: A (100) | Insecticidal effect (Test Example 2), judged from mortality [2]: A (100)

CC(C)NC(=O)c1c(I)cccc1C(=O)Nc1ccc(C(F)(F)C(F)(F)F)c(Cl)c1 [compound 1608]
Insecticidal effect (Test Example 1), judged from mortality [1]: A (100) | Insecticidal effect (Test Example 2), judged from mortality [2]: A (100)

CC(C)(C)NC(=O)c1c(I)cccc1C(=O)Nc1ccc(C(F)(F)C(F)(F)F)c(Cl)c1 [compound 1609]
Insecticidal effect (Test Example 1), judged from mortality [1]: A (100) | Insecticidal effect (Test Example 2), judged from mortality [2]: A (100)

Cc1cc(C(F)(F)C(F)(F)F)c(C)cc1NC(=O)c1cccc(I)c1C(=O)NC(C)C [compound 1610]
Insecticidal effect (Test Example 1), judged from mortality [1]: A (100) | Insecticidal effect (Test Example 2), judged from mortality [2]: A (100)

Cc1c(NC(=O)c2cccc(I)c2C(=O)NC(C)C)ccc(C(F)(F)C(F)(F)F)c1C [compound 1612]
Insecticidal effect (Test Example 1), judged from mortality [1]: A (100) | Insecticidal effect (Test Example 2), judged from mortality [2]: A (100)

Cc1c(NC(=O)c2cccc(I)c2C(=O)NC(C)(C)C)ccc(C(F)(F)C(F)(F)F)c1C [compound 1613]
Insecticidal effect (Test Example 1), judged from mortality [1]: A (100) | Insecticidal effect (Test Example 2), judged from mortality [2]: A (100)

CCN(CC)C(=O)c1c(I)cccc1C(=O)Nc1ccc(-c2ccc(C(F)(F)F)cc2)cc1C [compound 1619]
Insecticidal effect (Test Example 1), judged from mortality [1]: A (100) | Insecticidal effect (Test Example 2), judged from mortality [2]: A (100)

CC(C)NC(=O)c1c(I)cccc1C(=O)Nc1cc2c(cc1I)OC(F)(F)O2 [compound 1660]
Insecticidal effect (Test Example 1), judged from mortality [1]: A (100) | Insecticidal effect (Test Example 2), judged from mortality [2]: A (100)

COc1cc(C(F)(F)C(F)(F)F)ccc1NC(=O)c1cccc(I)c1C(=O)NC(C)(C)C [compound 1662]
Insecticidal effect (Test Example 1), judged from mortality [1]: A (100) | Insecticidal effect (Test Example 2), judged from mortality [2]: A (100)

Cc1cc(C(F)(C(F)(F)F)C(F)(F)F)c(F)cc1NC(=O)c1cccc(I)c1C(=O)NC(C)C [compound 1663]
Insecticidal effect (Test Example 1), judged from mortality [1]: A (100) | Insecticidal effect (Test Example 2), judged from mortality [2]: A (100)

Cc1cc(C(F)(C(F)(F)F)C(F)(F)F)c(F)cc1NC(=O)c1cccc(I)c1C(=O)NC(C)(C)C [compound 1664]
Insecticidal effect (Test Example 1), judged from mortality [1]: A (100) | Insecticidal effect (Test Example 2), judged from mortality [2]: A (100)

Cc1cc(C(F)(C(F)(F)F)C(F)(F)F)c(Cl)cc1NC(=O)c1cccc(I)c1C(=O)NC(C)C [compound 1665]
Insecticidal effect (Test Example 1), judged from mortality [1]: A (100) | Insecticidal effect (Test Example 2), judged from mortality [2]: A (100)

Cc1cc2c(cc1NC(=O)c1cccc(I)c1C(=O)NC(C)C)OC(F)(F)C2(F)F [compound 1666]
Insecticidal effect (Test Example 1), judged from mortality [1]: A (100) | Insecticidal effect (Test Example 2), judged from mortality [2]: A (100)

Cc1cc(C(F)(C(F)(F)F)C(F)(F)F)ccc1NC(=O)c1cccc(I)c1C(=O)NC(C)C [compound 1667]
Insecticidal effect (Test Example 1), judged from mortality [1]: A (100) | Insecticidal effect (Test Example 2), judged from mortality [2]: A (100)

Cc1cc(C(F)(C(F)(F)F)C(F)(F)F)ccc1NC(=O)c1cccc(I)c1C(=O)NC(C)(C)C [compound 1668]
Insecticidal effect (Test Example 1), judged from mortality [1]: A (100) | Insecticidal effect (Test Example 2), judged from mortality [2]: A (100)
